Among the data in patent US20250186437A1, “CARBOLINE COMPOUNDS AND USE THEREOF” (PTC Therapeutics, Inc., priority 2021, published 2025) are IC50 values, retold here.

For orientation: IC50 means the concentration that inhibits the measured activity by half. Read a low IC50 as higher potency.

The assay concerns MOLM-13 cells. The experiment in a line: MOLM-13 Cell Proliferation Assay (indicator of DHODH inhibition). It counts as cell-based. Particulars: Homo sapiens, 72 Hours of culture, CellTiter-Glo, no uridine. Summed up:
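Low-passage MOLM-13 cells (10^4/well) in RPMI 1640 + 10% FBS exposed to compound (0.5% DMSO final) for 72 h at 37 °C, 5% CO2. Viability read by CellTiter-Glo luminescence; growth reflects de novo pyrimidine synthesis dependent on DHODH.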
A general note: In ATP-based viability assays light output follows the ATP content of the culture.
`Fc1c(Cl)ccc2[nH]c3c(c12)CCN(c1nccc(C(F)(F)F)n1)C3c1cnc(N2CCOCC2)nc1` (stereo not drawn) [Compound 200, 6-chloro-5-fluoro-1-[2-(morpholin-4-yl)pyrimidin-5-yl]-2-[4-(trifluoromethyl)pyrimidin-2-yl]-2,3,4,9-tetrahydro-1H-pyrido[3,4-b]indole]: the IC50 was 2.1 nM.
To `CN(C)c1ncc(C2c3[nH]c4ccc(Cl)c(F)c4c3CCN2c2ncc(F)cn2)cn1` (stereo not drawn) [Compound 201, 5-[6-chloro-5-fluoro-2-(5-fluoropyrimidin-2-yl)-2,3,4,9-tetrahydro-1H-pyrido[3,4-b]indol-1-yl]-N,N-dimethylpyrimidin-2-amine] belongs 7.9 nM.
The result for `Fc1c(Cl)ccc2[nH]c3c(c12)CCN(c1nccc(C(F)(F)F)n1)C3c1cccnc1` (stereo not drawn) [Compound 202, 6-chloro-5-fluoro-1-(pyridin-3-yl)-2-[4-(trifluoromethyl)pyrimidin-2-yl]-2,3,4,9-tetrahydro-1H-pyrido[3,4-b]indole] reads 16.2 nM.
Consider `Cc1ccnc(N2CCc3c([nH]c4ccc(Cl)cc34)C2c2ccc(C)c(F)c2F)n1` (stereo not drawn) [Compound 203, 6-chloro-1-(2,3-difluoro-4-methylphenyl)-2-(4-methylpyrimidin-2-yl)-2,3,4,9-tetrahydro-1H-pyrido[3,4-b]indole], for which the IC50 was 1.6 nM.
To `Cc1cc(C(F)(F)F)nc(N2CCc3c([nH]c4ccc(Cl)cc34)[C@H]2c2ccc(C)c(F)c2F)n1` [Compound 204, (1R)-6-chloro-1-(2,3-difluoro-4-methylphenyl)-2-[4-methyl-6-(trifluoromethyl)pyrimidin-2-yl]-2,3,4,9-tetrahydro-1H-pyrido[3,4-b]indole] belongs 39.8 nM; to `Cc1cc(C)nc(N2CCc3c([nH]c4ccc(Cl)c(F)c34)C2c2ccc(C)c(F)c2F)n1` (stereo not drawn) [Compound 205, 6-chloro-1-(2,3-difluoro-4-methylphenyl)-2-(4,6-dimethylpyrimidin-2-yl)-5-fluoro-2,3,4,9-tetrahydro-1H-pyrido[3,4-b]indole], 0.7 nM.
As to `Cc1cc(C(F)(F)F)nc(N2CCc3c([nH]c4ccc(Cl)c(F)c34)C2c2ccc(C)c(F)c2F)n1` (stereo not drawn) [Compound 206, 6-chloro-1-(2,3-difluoro-4-methylphenyl)-5-fluoro-2-[4-methyl-6-(trifluoromethyl)pyrimidin-2-yl]-2,3,4,9-tetrahydro-1H-pyrido[3,4-b]indole], the midpoint of inhibition, the IC50, lay at 0.4 nM.
To `Cc1ccc(C2c3[nH]c4c(O)cc(Cl)cc4c3CCN2c2nccc(C(F)(F)F)n2)cc1` (stereo not drawn) [Compound 207, 6-chloro-1-(4-methylphenyl)-2-[4-(trifluoromethyl)pyrimidin-2-yl]-2,3,4,9-tetrahydro-1H-pyrido[3,4-b]indol-8-ol] belongs 2.2 nM; to `CN(C)c1ccc(C2c3[nH]c4cc(F)c(Cl)cc4c3CCN2c2nccc(C(F)(F)F)n2)c(F)n1` (stereo not drawn) [Compound 208, 5-{6-chloro-7-fluoro-2-[4-(trifluoromethyl)pyrimidin-2-yl]-2,3,4,9-tetrahydro-1H-pyrido[3,4-b]indol-1-yl}-6-fluoro-N,N-dimethylpyridin-2-amine], 2.2 nM.
On to `Cc1ccc(C2c3[nH]c4ccc(Cl)c(F)c4c3CCN2c2nc(C(F)(F)F)cc(C(F)(F)F)n2)c(F)c1F` (stereo not drawn) [Compound 209, 2-[4,6-bis(trifluoromethyl)pyrimidin-2-yl]-6-chloro-1-(2,3-difluoro-4-methylphenyl)-5-fluoro-2,3,4,9-tetrahydro-1H-pyrido[3,4-b]indole], for which the IC50 worked out at 0.8 nM.
`CN(C)c1ccc(C2c3[nH]c4ccc(Cl)c(F)c4c3CCN2c2nccc(C(F)(F)F)n2)c(F)n1` (stereo not drawn) [Compound 210, 5-{6-chloro-5-fluoro-2-[4-(trifluoromethyl)pyrimidin-2-yl]-2,3,4,9-tetrahydro-1H-pyrido[3,4-b]indol-1-yl}-6-fluoro-N,N-dimethylpyridin-2-amine] gave an IC50 of 1.9 nM.
To `Fc1cnc(N2CCc3c([nH]c4ccc(Cl)c(F)c34)C2c2cnc(N3CCOCC3)nc2)nc1` (stereo not drawn) [Compound 211, 6-chloro-5-fluoro-2-(5-fluoropyrimidin-2-yl)-1-[2-(morpholin-4-yl)pyrimidin-5-yl]-2,3,4,9-tetrahydro-1H-pyrido[3,4-b]indole] belongs 4.9 nM.
To `Nc1ncc(C2c3[nH]c4ccc(Cl)c(F)c4c3CCN2c2ncc(F)cn2)cn1` (stereo not drawn) [Compound 212, 5-[6-chloro-5-fluoro-2-(5-fluoropyrimidin-2-yl)-2,3,4,9-tetrahydro-1H-pyrido[3,4-b]indol-1-yl]pyrimidin-2-amine] belongs 71 nM.
To `Cc1ccc(C2c3[nH]c4ccc(Cl)c(F)c4c3CCN2c2ncc(F)c(C#N)n2)c(F)c1F` (stereo not drawn) [Compound 214, 2-[6-chloro-1-(2,3-difluoro-4-methylphenyl)-5-fluoro-1,3,4,9-tetrahydro-2H-pyrido[3,4-b]indol-2-yl]-5-fluoropyrimidine-4-carbonitrile] belongs 0.5 nM.
For `Cc1ccc(C2c3[nH]c4cc(F)c(Cl)cc4c3CCN2c2nc(C#N)cc(C#N)n2)c(F)c1F` (stereo not drawn) [Compound 216, 2-[6-chloro-1-(2,3-difluoro-4-methylphenyl)-7-fluoro-1,3,4,9-tetrahydro-2H-pyrido[3,4-b]indol-2-yl]pyrimidine-4,6-dicarbonitrile], the IC50 was found to be 4.8 nM.
Molecule `Cc1ccc(C2c3[nH]c4ccc(Cl)c(F)c4c3CCN2c2ncc(F)c(C#N)n2)cc1` (stereo not drawn) [Compound 217, 2-[6-chloro-5-fluoro-1-(4-methylphenyl)-1,3,4,9-tetrahydro-2H-pyrido[3,4-b]indol-2-yl]-5-fluoropyrimidine-4-carbonitrile] had an IC50 of 2.2 nM.
The result for `Oc1cc(C2c3[nH]c4ccc(Cl)cc4c3CCN2c2nccc(C(F)(F)F)n2)ccc1Cl` (stereo not drawn) [Compound 218, 2-chloro-5-{6-chloro-2-[4-(trifluoromethyl)pyrimidin-2-yl]-2,3,4,9-tetrahydro-1H-pyrido[3,4-b]indol-1-yl}phenol] reads 6.1 nM; that for `Oc1cc(C2c3[nH]c4ccc(Cl)cc4c3CCN2c2ncc(F)cn2)ccc1Cl` (stereo not drawn) [Compound 219, 2-chloro-5-[6-chloro-2-(5-fluoropyrimidin-2-yl)-2,3,4,9-tetrahydro-1H-pyrido[3,4-b]indol-1-yl]phenol], 23.3 nM.
The result for `Oc1cc(Cl)ccc1C1c2[nH]c3ccc(Cl)cc3c2CCN1c1ncc(F)cn1` (stereo not drawn) [Compound 221, 5-chloro-2-[6-chloro-2-(5-fluoropyrimidin-2-yl)-2,3,4,9-tetrahydro-1H-pyrido[3,4-b]indol-1-yl]phenol] reads 4.2 nM.
The result for `Oc1cc(Cl)ccc1C1c2[nH]c3ccc(Cl)cc3c2CCN1c1nccc(C(F)(F)F)n1` (stereo not drawn) [Compound 222, 5-chloro-2-{6-chloro-2-[4-(trifluoromethyl)pyrimidin-2-yl]-2,3,4,9-tetrahydro-1H-pyrido[3,4-b]indol-1-yl}phenol] reads 3.5 nM; that for `OCCOCc1ccc(C2c3[nH]c4cc(F)c(Cl)cc4c3CCN2c2nccc(C(F)(F)F)n2)cc1` (stereo not drawn) [Compound 223, 2-[(4-{6-chloro-7-fluoro-2-[4-(trifluoromethyl)pyrimidin-2-yl]-2,3,4,9-tetrahydro-1H-pyrido[3,4-b]indol-1-yl}phenyl)methoxy]ethan-1-ol], 2 nM.
